Experimental data published in US20240059738A1, “SWITCHING PEPTIDE AND MULTIPLEX IMMUNOASSAY METHOD USING SAME” (OPTOLANE TECHNOLOGIES INC., priority 2021, published 2024).

How the values were obtained:
[1] = test system: Anti-HBsAg antibody(g); assay: Antigen-induced release of fluorescently labeled peptide from immobilized antibody (Table 2), HBsAg antigen; format: binding, goat; conditions: for fluorescence intensity remaining at bottom of plate after antigen (% of before): anti-HBsAg antibodies from goats; for Bottom (B) of microplate Change (%) / fluorescence intensity Bottom (B) of microplate After antigen binding / fluorescence intensity Bottom (B) of microplate Before antigen binding / fluorescence intensity In solution (S) After antigen binding / fluorescence intensity In solution (S) Before antigen binding: anti-HBsAg antibody (goat), HBsAg
[2] = test system: Anti-CRP antibody(r); assay: Antigen-induced release of fluorescently labeled peptide from immobilized antibody (Table 2), CRP antigen; format: binding; conditions: anti-CRP antibody (rabbit)
[3] = test system: rabbit anti-HRP antibodies (Fab region); assay: Papain treatment of immobilized antibody with bound fluorescently labeled switching peptide (FIG. 6B); format: binding; conditions: after papain treatment compared to before
Source text: FIG. 6A is a schematic diagram illustrating states before and after treatment of the antibody to which the four types of peptides of Example 1 were bound, respectively, with papain, which is a protease, and FIG. 6B is graphs illustrating a fluorescence intensity measured at a bottom (B) of the microplate and in a solution (S) after the papain treatment. In the case of this experiment, after immobilization of the antibodies (rabbit anti-HRP antibodies) on the microplate, binding between the antibody and the switching peptide was induced by treatment with a fluorescently labeled switching peptide, the unbound switching peptide was removed, and then the Fab region was hydrolyzed from the immobilized antibodies by adding papain, which is a protease.
Referring to FIG. 6A, the fluorescence at the bottom (B) of the microplate is expected to decrease after the papain reaction because the fluorescently labeled switching peptides are bound to the Fab region of antibodies, and the fluorescence in the solution is expected to increase because the Fab region to which the switching peptide is bound is hydrolyzed and dissolved into the solution. This prediction is proven to be true from the graphs of FIG. 6B.

[4] = test system: anti-HRP antibody from a rabbit; assay: One-step immunoassay with varying HRP concentration (FIGS. 7A-7C); format: binding; conditions: HRP 0.3 to 100 μM; for Kd: estimated, read-out: Equilibrium dissociation constants
Source text: FIG. 7A is a schematic diagram for explaining an immunoassay method using fluorescently labeled peptide compounds of Example 1, and FIGS. 7B and 7C are graphs illustrating the fluorescence intensities in a solution and at a bottom of the microplate depending on a concentration of the antigen measured by the immunoassay method illustrated in FIG. 7A. In this experiment, an anti-HRP antibody from a rabbit immobilized on a microplate was used as the binding antibody and HRP was used as the antigen.

[5] = Net charge of switching peptides at pH 6.0 to 8.0; format: physicochemical
Experimental: (§1) Regarding the antibody binding properties of the switching peptides at pH 6.0 to 8.0, a net charge of H1 and L2 peptides decreased to 0.5 at pH 6.0 to 7.0 due to a histidine residue with a pKa value of 6.02. In addition, the net charge of the H2 and L2 peptides decreased to 0.5 at pH 7.0 to 8.0 due to a cysteine residue with a pKa value of 8.18. […] Therefore, the immunoassay was performed by selecting an L1 peptide having specific dissociation from hepatitis B surface antigen-antibody binding and stability within a pH range of human serum immunoassay.

[6] = test system: Anti-hCG antibody(m); assay: Antigen-induced release of fluorescently labeled peptide from immobilized antibody (Table 2), hCG antigen; format: binding; conditions: anti-hCG antibody (mouse)
[7] = test system: Anti-HRP antibody(r); assay: Antigen-induced release of fluorescently labeled peptide from immobilized antibody (Table 2), HRP antigen; format: binding, rabbit; conditions: for remaining fluorescence intensity at plate bottom after antigen binding (% of before): anti-HRP antibodies from rabbits; for Bottom (B) of microplate Change (%) / fluorescence intensity Bottom (B) of microplate After antigen binding / fluorescence intensity Bottom (B) of microplate Before antigen binding / fluorescence intensity In solution (S) After antigen binding / fluorescence intensity In solution (S) Before antigen binding: anti-HRP antibody (rabbit), HRP
[8] = test system: HRP, CRP, HBsAg, and hCG
Experimental: After immobilizing the hepatitis B surface antigen (HBsAg)-antibody detected using the immunoassay of the peptide compounds of Example 1 on a microplate, L1 peptide was added, and 0.04 to 30 μg/ml of the hepatitis B surface antigen was treated.

[9] = test system: H2 peptide; assay: FRET interaction between L1 and H2 peptides on microplate; format: binding; conditions: with increasing concentration of L1 peptide; FAM/TAMRA labels
Source text: FIG. 4A is diagrams illustrating a method for confirming a specific interaction between L1 and H2 peptides and a specific interaction between L2 and H1 peptides and the measurement results thereof, and FIG. 4B is diagrams for explaining a specific interaction between L1 and H2 peptides and a specific interaction between L2 and H1 peptides analyzed using PyMOL software. Here, at the ends of the L1 and L2 peptides, a first fluorescent label, FAM (λex=488 nm, λem=532 nm) was modified, and at the ends of the H1 and H2 peptides, a second fluorescent label, TAMRA λex=532 nm, λem=570 nm) was modified. Meanwhile, the first peptide (L1 or L2) was immobilized on a parylene-H-coated microplate through a covalent bond between a formyl group of parylene-H and a primary amine group of a lysine residue in the peptide, and the second peptide (H2 or H1) was incubated with the immobilized first peptide (L1 or L2) to allow specific interactions between them.
Referring to FIG. 4A, the interaction between the L1 and H2 peptides was observed by changing the concentration of the L1 peptide, and the FRET intensity increased with increasing the concentration of the L1 peptide.

[10] = test system: hepatitis B surface antigen-antibody; assay: Antibody binding properties (fluorescence signal) of switching peptides at pH 6.0 to 8.0
Experimental: as §1

[11] = pH 7.0 to 8.0, cysteine residue pKa 8.18

Row | Sequence | fluorescence intensity remaining at bottom of plate after antigen (% of before) [1] | Bottom (B) of microplate Change (%) [1] | fluorescence intensity Bottom (B) of microplate After antigen binding [1] | fluorescence intensity Bottom (B) of microplate Before antigen binding [1] | fluorescence intensity In solution (S) After antigen binding [1] | fluorescence intensity In solution (S) Before antigen binding [1] | Bottom (B) of microplate Change (%) [2] | In solution (S) Change (%) [2] | fluorescence intensity Bottom (B) of microplate After antigen binding [2] | fluorescence intensity Bottom (B) of microplate Before antigen binding [2] | fluorescence intensity In solution (S) After antigen binding [2] | fluorescence intensity In solution (S) Before antigen binding [2] | decrease of fluorescence intensity at the bottom of the microplate [3] | increase of fluorescence intensity in the solution [3] | fluorescence intensity in the solution depending on the concentration of the antigen (HRP) [4] | Kd [4] | Bottom (B) of microplate Change (%) [6] | In solution (S) Change (%) [6] | fluorescence intensity Bottom (B) of microplate After antigen binding [6] | fluorescence intensity Bottom (B) of microplate Before antigen binding [6] | other results
1 | VYYCFQGSHVPFTK [L2, VYYCF QGSHV PFTK] | 35.2% | −64.8% | 9856 | 28002 | 15359 | 2279 | −44.9% | +883% | 11236 | 20394 | 32187 | 3274 | 72.5% | 2,452% | increase | 1.48 µM | −90.7% | +456% | 3072 | 33156 | net charge ([5]; pH 6.0 to 7.0, histidine residue pKa 6.02): 0.5; net charge [5, 11]: 0.5; fluorescence intensity In solution (S) After antigen binding [6]: 9402; fluorescence intensity In solution (S) Before antigen binding [6]: 1692; remaining fluorescence intensity at plate bottom after antigen binding (% of before) [7]: 25.5%; Bottom (B) of microplate Change (%) [7]: −74.5%; fluorescence intensity Bottom (B) of microplate After antigen binding [7]: 3208; fluorescence intensity Bottom (B) of microplate Before antigen binding [7]: 12584; fluorescence intensity In solution (S) After antigen binding [7]: 16135; fluorescence intensity In solution (S) Before antigen binding [7]: 2315
2 | VYYCAREPTGTGIYFDVWGK [H2, VYYCA REPTG TGIYF DVWGK] | 63.9% | −36.1% | 18773 | 29367 | 9136 | 1784 | −39.5% | +677% | 22205 | 22205 | 16311 | 2099 | 58.7% | 2,356% | increase | 3.11 µM | −88.5% | +416% | 23320 | 23320 | net charge [5, 11]: 0.5; fluorescence intensity In solution (S) After antigen binding [6]: 8545; fluorescence intensity In solution (S) Before antigen binding [6]: 1654; remaining fluorescence intensity at plate bottom after antigen binding (% of before) [7]: 14.8%; Bottom (B) of microplate Change (%) [7]: −85.2%; fluorescence intensity Bottom (B) of microplate After antigen binding [7]: 1806; fluorescence intensity Bottom (B) of microplate Before antigen binding [7]: 122230; fluorescence intensity In solution (S) After antigen binding [7]: 18128; fluorescence intensity In solution (S) Before antigen binding [7]: 2272
3 | TYLEWYPQKPGQSPKLLIYK [L1, TYLEW YPQKP GQSPK LLIYK] | 48.7% | −51.3% | 5388 | 11062 | 20501 | 2779 | −48.6% | +778% | 3456 | 6719 | 6505 | 741 | 84.8% | 1,032% | increase | 3.29 µM | −61.6% | +187% | 1777 | 4630 | selectivity among the four antigens [8]: highest selectivity; FRET intensity [9]: increased; fluorescence signal in pH range required for immunoassay of HBsAg in human serum [10]: almost the same fluorescence signal; fluorescence intensity In solution (S) After antigen binding [6]: 3580; fluorescence intensity In solution (S) Before antigen binding [6]: 1248; remaining fluorescence intensity at plate bottom after antigen binding (% of before) [7]: 12.7%; Bottom (B) of microplate Change (%) [7]: −87.3%; fluorescence intensity Bottom (B) of microplate After antigen binding [7]: 1990; fluorescence intensity Bottom (B) of microplate Before antigen binding [7]: 15608; fluorescence intensity In solution (S) After antigen binding [7]: 12280; fluorescence intensity In solution (S) Before antigen binding [7]: 2687
